One data set addresses recombinant human PREP (Homo sapiens (Human), UniProt P48147). Kind of data set: PREP protease activity assay. The data set is classed as biochemical. On the procedure: (§1) The PREP activity assay was performed using the FACS buffer (PBS including 1% FBS, Sigma-Aldrich, Cat #D8537). […] The DPP4 activity assay was performed in DPP assay buffer (25 mM Tris, pH 8.0). […] Four parameter logistic (4PL) curve fitting and pIC50 calculations were performed using ActivityBase software.

For data set [1], the target named is T1, Human recombinant FAP (Homo sapiens (Human), UniProt Q12884). Description: Surface plasmon resonance assay (Biacore T200, SCK). The data set is classed as binding. The conditions noted are these: for pKD (Biacore): SPR; for HL [min] (Biacore): SPR dissociation half-life. On the procedure:
Surface plasmon resonance studies were performed using a Biacore™ T200 SPR system (Cytiva, formerly GE Healthcare). Briefly, polarized light is directed towards a gold-labeled sensor surface, and minimum intensity reflected light is detected. The angle of reflected light changes as molecules bind and dissociate. […] Test compounds are contacted with the loaded surface, and a real-time interaction profile with the FAP ligand is recorded in a sensorgram. In real-time, the association and dissociation of a binding interaction is measured, enabling calculation of association and dissociation rate constants and the corresponding affinity constants. Importantly, a background response is generated due to the difference in the refractive indices of the running and sample buffers, as well as unspecific binding of the test compounds to the flow cell surface. This background is measured and subtracted by running the sample on a control flow cell coated with the same density of capture antibody in the absence of immobilized FAP. Furthermore, baseline drift correction of the binding data is performed, which is caused by slow dissociation of the captured FAP from the immobilized antibody. This drift is measured by injecting running buffer through a flow cell with the antibody and FAP immobilized to the sensor surface.
Biacore™ CM5 sensor chips were used. […] A 150 μL aliquot was transferred into plastic vials and placed into the sample rack of the Biacore™ T200 instrument. Amine Coupling Kit Reagent solutions were transferred into plastic vials and placed into the sample rack: 90 μL of 0.4 M 1-ethyl-3-(3-dimethylaminopropyl) carbodiimide (EDC), and 90 μL of 0.1 M N-hydroxysuccinimide (NHS). A 130 μL aliquot of 1 M ethanolamine-HCl, pH 8.5, was transferred into plastic vials and placed into the sample rack. The Biacore™ liquid system was set-up as follows: Separate bottles containing distilled water (1 L), Running Buffer (500 mL), as well as an empty bottle for waste were placed onto the buffer tray. A preinstalled program for immobilization was used, with an immobilization level of 7000 RU. Immobilization was performed at 25° C. The immobilization procedure of anti-FAP antibodies was performed, as described in the Table 4.
Human recombinant FAP was diluted in Running Buffer to a final concentration of 20 μg/mL. A 100 μL aliquot of human FAP-Working-Solution was transferred into plastic vials and placed into a sample rack. A 0.5 mM Compound-Stock-Solution was prepared by dissolving each compound in DMSO. For each test compound, Compound-Stock-Solutions were diluted in Running Buffer (HBST) at 500 nM and further diluted with HBST-DMSO Buffer (0.1% DMSO). SPR binding analyses for binary complexes were performed in SCK mode at 25° C. Following three SCK measurements, a baseline drift was assessed by injecting running buffer through a flow cell, with the antibody and FAP immobilized to the sensor surface.
For each test compound, SPR raw data in the form of resonance units (RU) were plotted as sensorgrams using the Biacore™ T200 control software. The signal from the blank sensorgram was subtracted from that of the test compound sensorgram (blank corrected). The blank corrected sensorgram was corrected for baseline drift by subtracting the sensorgram of a SCK run without the test compound (running buffer only). The association rate (kon), dissociation rate (koff), dissociation constant (KD), and t1/2 were calculated from Blank-normalized SPR data using the 1:1 Langmuir binding model from the Biacore™ T200 evaluation software. Raw data and fit results were imported as text files in IDBS. The pKD value (negative decadic logarithm of dissociation constant) was calculated in the IDBS excel template.
Target sequence in this assay (Q12884 whole entry): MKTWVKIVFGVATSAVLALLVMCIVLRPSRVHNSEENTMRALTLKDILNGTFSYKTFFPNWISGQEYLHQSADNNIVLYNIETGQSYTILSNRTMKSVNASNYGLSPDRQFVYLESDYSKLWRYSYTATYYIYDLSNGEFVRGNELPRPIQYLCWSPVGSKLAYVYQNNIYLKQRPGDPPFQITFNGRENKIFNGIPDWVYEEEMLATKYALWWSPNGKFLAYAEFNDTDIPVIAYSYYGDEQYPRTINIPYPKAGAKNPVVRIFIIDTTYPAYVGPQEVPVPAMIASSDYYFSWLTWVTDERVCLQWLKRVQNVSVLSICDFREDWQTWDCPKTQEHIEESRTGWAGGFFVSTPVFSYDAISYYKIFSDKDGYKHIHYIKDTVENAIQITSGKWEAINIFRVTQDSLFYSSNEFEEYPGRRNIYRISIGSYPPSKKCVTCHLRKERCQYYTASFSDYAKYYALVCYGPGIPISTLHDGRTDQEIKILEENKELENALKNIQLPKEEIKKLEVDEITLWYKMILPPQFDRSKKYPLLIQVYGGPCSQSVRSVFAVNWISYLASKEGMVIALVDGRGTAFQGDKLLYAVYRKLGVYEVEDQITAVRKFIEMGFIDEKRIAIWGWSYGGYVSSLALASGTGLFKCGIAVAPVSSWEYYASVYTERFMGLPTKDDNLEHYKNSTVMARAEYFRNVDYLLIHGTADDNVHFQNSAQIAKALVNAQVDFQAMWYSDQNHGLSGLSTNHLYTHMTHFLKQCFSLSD
A general note: In SPR one partner is held on a chip, and binding of the other changes the refractive index at the surface.

The target of data set [2] is FAP-expressing human WI-38 fibroblasts (Homo sapiens (Human), UniProt Q12884). Kind of data set: FACS binding assay (competitive, Cy5-labeled 3BP-2935). Here is the method:
In order to determine binding of compounds according to the present invention to FAP-expressing cells, a competitive FACS binding assay was established. […] Cells were diluted in FACS buffer to a final concentration of 100.000 cells per ml and 200 μl of the cell suspension are transferred to a u-shaped non-binding 96-well plate (Greiner). […] Cell were washed twice with FACS buffer (see above) and resuspended in 200 μl FACS buffer. Cells were analyzed in an Attune NxT flow cytometer (Thermo Fisher Scientific). Median fluorescence intensities (Cy5 channel) were calculated by Attune NxT software and plotted against test compound concentrations. Four parameter logistic (4PL) curve fitting and pIC50 calculations were performed using ActivityBase software.
On the technique in general: A flow cytometer gives signals particle by particle.

The target in a further data set is Recombinant human DPP4 (Homo sapiens (Human), UniProt P27487). Description: DPP4 protease activity assay. The data set is classed as biochemical. Here is the method:
as §1

The target in data set [3] is T1, Human recombinant FAP. Description: FAP protease activity assay (human), FRET-based. The data set is classed as biochemical. Here is the method:
(§2) In order to determine the inhibitory activity a FRET-based FAP protease activity assay was established.
Four parameter logistic (4PL) curve fitting and pIC50 calculations were performed using ActivityBase software (IDBS).
Target sequence in this assay (Q12884 26-760): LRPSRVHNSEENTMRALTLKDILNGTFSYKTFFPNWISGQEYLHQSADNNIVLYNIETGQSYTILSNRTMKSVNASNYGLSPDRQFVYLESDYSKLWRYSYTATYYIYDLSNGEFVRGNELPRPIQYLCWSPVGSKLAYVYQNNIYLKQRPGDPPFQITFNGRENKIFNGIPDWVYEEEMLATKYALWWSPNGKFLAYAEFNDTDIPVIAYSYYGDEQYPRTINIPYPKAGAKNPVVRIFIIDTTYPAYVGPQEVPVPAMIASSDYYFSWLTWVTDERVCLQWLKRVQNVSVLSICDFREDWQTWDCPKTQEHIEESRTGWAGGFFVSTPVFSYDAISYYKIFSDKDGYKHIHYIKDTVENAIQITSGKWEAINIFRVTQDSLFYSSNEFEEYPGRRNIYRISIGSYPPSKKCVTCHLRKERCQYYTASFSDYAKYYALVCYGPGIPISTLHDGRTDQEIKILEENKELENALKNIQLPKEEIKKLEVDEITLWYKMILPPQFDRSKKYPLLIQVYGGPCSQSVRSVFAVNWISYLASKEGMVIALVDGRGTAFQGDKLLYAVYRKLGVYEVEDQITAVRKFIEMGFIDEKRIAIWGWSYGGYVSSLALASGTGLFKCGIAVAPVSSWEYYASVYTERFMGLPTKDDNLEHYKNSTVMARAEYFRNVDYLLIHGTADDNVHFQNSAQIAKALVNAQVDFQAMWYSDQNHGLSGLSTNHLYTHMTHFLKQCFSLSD

Another data set deals with Recombinant mouse FAP (Mus musculus (Mouse), UniProt P97321). Description: FAP protease activity assay (mouse), FRET-based. The data set is classed as biochemical. Here is the method: as §2
Chain of Recombinant mouse FAP (P97321 whole entry): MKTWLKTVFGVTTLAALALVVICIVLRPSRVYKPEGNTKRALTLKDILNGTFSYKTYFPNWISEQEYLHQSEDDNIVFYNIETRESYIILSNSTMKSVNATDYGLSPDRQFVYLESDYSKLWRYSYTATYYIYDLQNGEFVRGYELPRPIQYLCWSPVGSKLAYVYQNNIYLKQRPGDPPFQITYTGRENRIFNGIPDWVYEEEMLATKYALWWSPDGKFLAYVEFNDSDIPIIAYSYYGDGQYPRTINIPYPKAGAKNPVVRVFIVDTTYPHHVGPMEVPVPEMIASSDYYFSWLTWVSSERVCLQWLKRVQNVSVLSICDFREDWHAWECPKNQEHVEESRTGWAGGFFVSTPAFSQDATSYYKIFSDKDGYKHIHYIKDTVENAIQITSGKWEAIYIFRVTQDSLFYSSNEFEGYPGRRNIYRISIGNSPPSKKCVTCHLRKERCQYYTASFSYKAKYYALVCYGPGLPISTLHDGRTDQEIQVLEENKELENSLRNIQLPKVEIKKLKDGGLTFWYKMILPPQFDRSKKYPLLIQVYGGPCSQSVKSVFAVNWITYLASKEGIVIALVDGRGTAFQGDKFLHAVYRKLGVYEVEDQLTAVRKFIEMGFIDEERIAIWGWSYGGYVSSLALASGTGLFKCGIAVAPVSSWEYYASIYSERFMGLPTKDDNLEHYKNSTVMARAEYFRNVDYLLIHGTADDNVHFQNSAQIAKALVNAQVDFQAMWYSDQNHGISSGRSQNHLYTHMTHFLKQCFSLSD
Four parameter logistic (4PL) curve fitting and pIC50 calculations were performed using ActivityBase software.

A further data set relates to HT-29 cells. Description: Stability in the presence of tumor cells (HT-29), FAP IC50 of supernatants. The data set is classed as in vitro ADME, human.
[4] abbreviates: FAP-expressing WI-38 fibroblasts.
Setting [5] is: recombinant human FAP, FRET protease activity.
Setting [6] is: recombinant mouse FAP protease activity.
[7] abbreviates: human FAP protease activity, FRET.

Chain of FAP-expressing human WI-38 fibroblasts (Q12884 whole entry): as the sequence (Q12884 whole entry) above
Chain of recombinant human PREP (P48147 whole entry): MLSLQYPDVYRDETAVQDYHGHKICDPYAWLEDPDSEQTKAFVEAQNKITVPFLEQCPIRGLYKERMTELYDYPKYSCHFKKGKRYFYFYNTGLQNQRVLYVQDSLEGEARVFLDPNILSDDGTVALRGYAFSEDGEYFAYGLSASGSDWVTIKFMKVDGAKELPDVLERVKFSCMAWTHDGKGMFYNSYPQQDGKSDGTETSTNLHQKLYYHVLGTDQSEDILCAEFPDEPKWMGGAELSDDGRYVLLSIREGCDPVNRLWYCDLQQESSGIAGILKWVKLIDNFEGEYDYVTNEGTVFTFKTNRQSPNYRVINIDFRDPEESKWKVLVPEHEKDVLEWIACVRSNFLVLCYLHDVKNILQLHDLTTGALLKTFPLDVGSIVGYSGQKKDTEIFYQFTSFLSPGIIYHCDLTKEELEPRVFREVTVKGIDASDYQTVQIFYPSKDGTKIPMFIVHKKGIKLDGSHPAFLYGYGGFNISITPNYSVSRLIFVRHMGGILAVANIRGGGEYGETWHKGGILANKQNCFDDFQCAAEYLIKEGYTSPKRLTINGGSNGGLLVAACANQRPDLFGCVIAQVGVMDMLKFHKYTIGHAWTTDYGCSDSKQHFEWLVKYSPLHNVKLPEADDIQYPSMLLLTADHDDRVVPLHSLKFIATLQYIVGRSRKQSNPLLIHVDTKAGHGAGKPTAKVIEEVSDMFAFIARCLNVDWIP
Chain of Recombinant human DPP4 (P27487 whole entry): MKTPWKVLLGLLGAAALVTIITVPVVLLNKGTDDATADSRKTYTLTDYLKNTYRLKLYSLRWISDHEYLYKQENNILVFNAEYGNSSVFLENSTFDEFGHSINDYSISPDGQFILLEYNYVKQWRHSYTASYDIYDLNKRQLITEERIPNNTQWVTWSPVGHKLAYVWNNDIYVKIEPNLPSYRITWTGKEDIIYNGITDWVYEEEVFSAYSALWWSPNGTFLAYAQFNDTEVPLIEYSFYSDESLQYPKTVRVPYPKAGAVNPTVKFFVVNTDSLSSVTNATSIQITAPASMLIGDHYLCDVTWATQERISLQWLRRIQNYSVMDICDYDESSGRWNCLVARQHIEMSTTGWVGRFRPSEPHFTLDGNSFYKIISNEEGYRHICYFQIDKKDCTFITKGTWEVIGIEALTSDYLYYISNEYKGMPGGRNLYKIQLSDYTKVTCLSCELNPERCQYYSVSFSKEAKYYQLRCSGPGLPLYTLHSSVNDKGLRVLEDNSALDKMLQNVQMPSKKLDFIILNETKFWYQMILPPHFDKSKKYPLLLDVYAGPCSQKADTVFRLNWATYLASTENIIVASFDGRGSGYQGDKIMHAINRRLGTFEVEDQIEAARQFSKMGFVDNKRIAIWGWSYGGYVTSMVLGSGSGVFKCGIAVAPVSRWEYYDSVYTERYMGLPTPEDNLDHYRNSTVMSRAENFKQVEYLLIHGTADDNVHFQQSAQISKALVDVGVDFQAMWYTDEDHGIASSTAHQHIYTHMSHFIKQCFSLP
Description for HT-29 cells: Cells were cultured in McCoys's 5A modified medium (Biochrom, #F1015) including 10% fetal bovine serum (FBS), 2 mM L-glutamine, 100 U/ml penicillin and 100 μg/mL streptomycin (growth medium). […] 1 mL of the cell suspension were seeded in 24-well plates and incubated overnight at 37° C. and 5% CO2. The next day, cells were washed twice and growth medium was exchanged against DMEM without phenol red (Biochrom, #F0475) including 2 mM L-glutamine. Test compound was diluted in DMEM without phenol red (Biochrom, #F0475) including 2 mM L-glutamine. 400 μL of a 10 μM solution of the test compound was incubated for 24 hours at 37° C. and 5% CO2 in the presence of cells as well as in control wells (without cells) of the same 24-well plate.
25 μL of a 30 μM substrate solution, diluted in assay buffer, was added. All solutions were equilibrated at 37° C. prior to use. […] RFU/sec was calculated by SoftMax Pro software and plotted against test compound concentration. Four parameter logistic (4PL) curve fitting and IC50/pIC50 calculations were performed using GraphPad Prism 9.1 software.
The stability of exemplary compounds was further assessed in the presence of a variety of human cell lines from different tissue origins. […] Compounds were diluted in DMEM without phenol red (Biochrom, #F0475) including 2 mM L-glutamine. 400 μL of a 10 μM solution of the test compound was incubated for 24 hours at 37° C. and 5% CO2 in the presence of cells as well as in control wells (without cells) of the same 24-well plate. IC50/pIC50 determination of the supernatants was performed as described above.

For `CS(=O)(=O)c1cccc(-c2ccc3nccc(C(=O)NCC(=O)N4CCC[C@H]4C#N)c3c2)c1` [Compound 3BP-3132], the “pIC50 (PREP)” value at recombinant human PREP is reported as <6. Moreover, at Human recombinant FAP [1], the “pKD (Biacore)” value was 9.4 and the “HL [min] (Biacore)” value is 2.5 min. In addition, the “pIC50 (FACS)” value in data set [2] (setting [4]) is recorded as 8.4. Also, at Recombinant human DPP4, the “pIC50 (DPP4)” value is <6. Besides, the “pIC50 (Activity)” value at Human recombinant FAP [3] (setting [5]) is listed as 9.
Regarding `CS(=O)(=O)c1cccc(-c2ccc3c(C(=O)NCC(=O)N4CCC[C@H]4C#N)ccnc3c2)c1` [Compound 3BP-3133], at recombinant human PREP, the “pIC50 (PREP)” value is given as <6. In addition, at Human recombinant FAP [1], the “pKD (Biacore)” value turned out to be 9.3 and the “HL [min] (Biacore)” value is 5.7 min. The “pIC50 (FACS)” value in data set [2] (setting [4]) is reported as 8.2. For the same compound, the “pIC50 (DPP4)” value at Recombinant human DPP4 is reported as <6. Also, the “pIC50 (Activity)” value at Human recombinant FAP [3] (setting [5]) was 8.7.
Regarding `O=C(NCC(=O)N1CCC[C@H]1C(=O)c1nccs1)c1ccnc2ccccc12` [Compound 3BP-3206], the “pIC50 (PREP)” value at recombinant human PREP came to 7.6. Further, at Human recombinant FAP [1], the “pKD (Biacore)” value is given as 7.9 and the “HL [min] (Biacore)” value stood at 0.3 min. The “pIC50 (FACS)” value in data set [2] (setting [4]) is recorded as 7. Further, the “pIC50 (DPP4)” value at Recombinant human DPP4 is reported as <6. Besides, the “pIC50 (Activity)” value on Human recombinant FAP [3] (setting [5]) was 7.3.
For `CS(=O)(=O)c1ccc(-c2ccc3nccc(C(=O)NCC(=O)N4CCC[C@H]4C#N)c3c2)cc1` [Compound 3BP-3235], the “pIC50 (PREP)” value at recombinant human PREP is <6. Also, on Human recombinant FAP [1], the “pKD (Biacore)” value is 9.8 and the “HL [min] (Biacore)” value is listed as 12 min. Further, the “pIC50 (FACS)” value in data set [2] (setting [4]) was 8.4. On Recombinant human DPP4, the “pIC50 (DPP4)” value is <6. Further, the “pIC50 (Activity)” value at Human recombinant FAP [3] (setting [5]) is recorded as 9.2.
Take `N#C[C@@H]1CCCN1C(=O)CNC(=O)c1ccnc2cc(-c3cccc(C(=O)O)c3)ccc12` [Compound 3BP-3293]: the “pIC50 (PREP)” value on recombinant human PREP is recorded as <6. Besides, the “pIC50 (FACS)” value in data set [2] (setting [4]) is given as 8.6. The “pIC50 (DPP4)” value on Recombinant human DPP4 was <6. Besides, the “pIC50 (Activity)” value at Human recombinant FAP [3] (setting [5]) stood at 8.8.
In general, IC50 refers to the concentration needed to halve the response being measured. Take `N#C[C@@H]1CCCN1C(=O)CNC(=O)c1ccnc2ccc(-c3ccc(C(=O)O)cc3)cc12` [Compound 3BP-3295]: at recombinant human PREP, the IC50 was > 1000 nM. For the same compound, the “HL [min] (Biacore)” value at Human recombinant FAP [1] is recorded as 11 min.
For `N#C[C@@H]1CC(F)(F)CN1C(=O)CNC(=O)c1ccnc2ccc(OCCCN3CCN(C(=O)CN4CCN5CCN6CCN(CC4)CC(=O)[O][Lu]([O]C(=O)C6)[O]C(=O)C5)CC3)cc12` [Compound 3BP-3469], the “pIC50 (mouseFAP)” value at Recombinant mouse FAP (recombinant mouse FAP, FRET protease activity) came to 9.1. In addition, on Human recombinant FAP [1], the “pKD (Biacore)” value is listed as 10.2 and the “HL [min] (Biacore)” value was 35.5 min. In data set [2] (setting [4]), the “pIC50 (FACS)” value amounted to 8.7. In addition, at Recombinant human DPP4, the “pIC50 (DPP4)” value is reported as <6. On Human recombinant FAP [3] (setting [5]), the “pIC50 (Activity)” value worked out at 9.3. Moreover, in the data set with HT-29 cells (10 μM compound, 24 hours at 37° C. in control wells without cells, supernatant tested on recombinant human FAP), the “pIC50 (incubation in cell medium w/o HT-29)” value stood at 9.2. Besides, the “pIC50 (incubation in the presence of HT-29 cells)” value in the data set on HT-29 cells (10 μM compound, 24 hours at 37° C. with HT-29 cells, supernatant tested on recombinant human FAP) is recorded as 8.3. Also, the “Residual activity after incubation with HT-29 cells for 24 hours (%)” value with HT-29 cells (HT-29 cells, 24 hours) is given as 13%.
Turning to `N#C[C@@H]1CC(F)(F)CN1C(=O)CNC(=O)c1ccnc2ccc(-c3ccc(C(=O)NCCCNC(O)CN4CCN5CCN6CCN(CC4)CC(=O)[O][Eu]([O]C(=O)C6)[O]C(=O)C5)cc3)cc12` (stereo partly drawn) [Compound 3BP-3829], the “pIC50 (mouseFAP)” value at Recombinant mouse FAP (setting [6]) turned out to be 8.9. Further, on Human recombinant FAP [1], the “pKD (Biacore)” value was >10.5 and the “HL [min] (Biacore)” value is on record as >150 min. Besides, in data set [2] (WI-38 fibroblasts), the “pIC50 (FACS)” value stood at 8.9. The “pIC50 (DPP4)” value at Recombinant human DPP4 is listed as <6. The “pIC50 (Activity)” value on Human recombinant FAP [3] (setting [7]) is reported as 9.4.
With `N#C[C@@H]1CCCN1C(=O)CNC(=O)c1ccnc2ccc(-c3ccc(C(=O)NCCCNC(O)CN4CCN5CCN6CCN(CC4)CC(=O)[O][Eu]([O]C(=O)C6)[O]C(=O)C5)cc3)cc12` (stereo partly drawn) [Compound 3BP-3830], the “pIC50 (mouseFAP)” value on Recombinant mouse FAP (setting [6]) stood at 8.7. In addition, at Human recombinant FAP [1], the “pKD (Biacore)” value was 10 and the “HL [min] (Biacore)” value turned out to be 64 min. Besides, the “pIC50 (FACS)” value in data set [2] (WI-38 fibroblasts) was 8.5. For the same compound, the “pIC50 (DPP4)” value on Recombinant human DPP4 is <6. Further, on Human recombinant FAP [3] (setting [7]), the “pIC50 (Activity)” value came out at 9.3.

The record behind these values is US20240335569A1, “FIBROBLAST ACTIVATION PROTEIN INHIBITORS AND USE THEREOF” (3 B PHARMACEUTICALS GMBH, priority 2021, published 2024).
